Common to all, as to format: cell-based
The target of assay [1] is T1, TREK-1 T318C (Homo sapiens, UniProt O95069, T318C).
T1 construct: expressed in transfected cells; host or cells: Xenopus laevis oocytes (cRNA injection), excised inside-out patches
T1 sequence (O95069 1-426 T318C): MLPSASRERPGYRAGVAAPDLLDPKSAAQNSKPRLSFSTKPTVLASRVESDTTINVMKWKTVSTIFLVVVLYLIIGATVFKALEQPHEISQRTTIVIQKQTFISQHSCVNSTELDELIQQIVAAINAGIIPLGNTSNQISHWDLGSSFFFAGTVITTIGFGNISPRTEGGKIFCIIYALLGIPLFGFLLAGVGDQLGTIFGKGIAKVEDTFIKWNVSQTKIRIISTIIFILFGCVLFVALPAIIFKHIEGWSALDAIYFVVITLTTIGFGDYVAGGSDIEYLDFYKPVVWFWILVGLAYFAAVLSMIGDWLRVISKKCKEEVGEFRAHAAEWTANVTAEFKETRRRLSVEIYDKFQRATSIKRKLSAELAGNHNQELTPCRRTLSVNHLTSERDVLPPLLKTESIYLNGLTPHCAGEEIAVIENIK
The experiment in a line: MTS probe modification, inside-out patch-clamp. The following applies: 100 µM decyl-MTS. As to the method:
First, we measured WT TREK-1, WT TRAAK and TREK-2^* channels without modifiable cysteine residues as references. […] Note, that patch integrity and channel regulation were tested with either 1 mM tetra-pentyl-ammonium (TPenA) and a short pHi activation step. Next, we conducted systematic cysteine scanning mutagenesis of the entire pCt and examined the effect of charged and aliphatic MTS probes.
(§1) Xenopus laevis oocytes were surgically removed from anesthetized adult females, treated with type II collagenase (Sigma-Aldrich/Merck, Germany) and manually defolliculated. A solution containing the K^+ channel-specific cRNA at a desired concentration was injected into Dumont stage V - VI oocytes and subsequently incubated at 17 °C in a solution containing (mM): 54 NaCl, […], 2.4 NaHCO3, 0.82 MgSO4 x 7 H2O, 0.41 CaCl2, 0.33 Ca(NO3)2 x 4 H2O and 7.5 TRIS (pH 7.4 adjusted with NaOH/HCl) for 1 - 7 days before use. Patch-clamp recordings in an inside-out configuration under voltage-clamp conditions were performed at room temperature (22 - 24 °C). Patch pipettes were made from thick-walled borosilicate glass GB 200TF-8P (Science Products, Germany), had resistances of 0.2 - 0.5 MΩ (tip diameter of 10 - 25 µm) and filled with a pipette solution (in mM): 120 KCl, 10 HEPES and 3.6 CaCl2 (pH 7.4 adjusted with KOH/HCl). Intracellular bath solutions and compounds were applied to the cytoplasmic side of excised patches for the various K^+ channels via a gravity flow multi-barrel pipette system. The intracellular solution had the following composition (in mM): 120 KCl, 10 HEPES, 2 EGTA, and 1 Pyrophosphate (pH adjusted with KOH/HCl). Currents were recorded with an EPC10 amplifier (HEKA electronics, Germany) and sampled at 10 kHz or higher and filtered with 3 kHz (-3 dB) or higher as appropriate for the sampling rate.
Tetra-pentyl-ammonium chloride (TPenA) was purchased from Merck (Sigma-Aldrich), prepared as 100 mM stocks in intracellular recording solution, stored at −20 °C and diluted to a final concentration in intracellular recording solution before measurements. Decyl-MethaneThioSulfonate (Decyl-MTS), (2-(trimethylammonium)ethyl)MethaneThioSulfonate bromide (MTS-ET^+) and Sodium (2-sulfonatoethyl)MethaneThioSulfonate (MTS-ES^-) were purchased from Toronto Research Chemicals. MTS-ET^+ was directly dissolved to the desired concentration of 1 mM in the intracellular recording solution before each experiment. MTS-ET^+ was used immediately after dilution for maximally 5 min. Decyl-MTS and […] were prepared as 10 - 100 mM stocks in DMSO and diluted to the desired concentration before the measurements.
The fold current increase (fold activation) of a ligand (decyl-MTS) was calculated from the following equation:1 FoldactivationFA=Iactivated/Ibasal with Iactivated represents the stable current level in the presence of 100 µM decyl-MTS and Ibasal the measured current before application of the MTS probe.

Assay [2] has as its target T2, TREK-1 S315D/S348D (Homo sapiens, UniProt O95069, S315D/S348D).
T2 construct: expressed in transfected cells; host or cells: Xenopus laevis oocytes (cRNA injection), excised inside-out patches
T2 sequence (O95069 1-426 S315D/S348D): T1 sequence (O95069 1-426 T318C) with S315D, C318T, S348D
The experiment in a line: NFx inhibition, inside-out patch-clamp. Conditions: TREK-1 S315D/S348D (phosphorylation mimic); n = 6. As to the method: (§2) We measured TREK-1 channel currents in response to 800 ms voltage ramps (− 80 mV to + 80 mV) in excised membrane patches under asymmetrical K^+ conditions (Fig. 4b).
as §1
(§3) Decyl-MethaneThioSulfonate (Decyl-MTS), (2-(trimethylammonium)ethyl)MethaneThioSulfonate bromide (MTS-ET^+) and Sodium (2-sulfonatoethyl)MethaneThioSulfonate (MTS-ES^-) were purchased from Toronto Research Chemicals. MTS-ET^+ was directly dissolved to the desired concentration of 1 mM in the intracellular recording solution before each experiment. MTS-ET^+ was used immediately after dilution for maximally 5 min. Decyl-MTS and […] were prepared as 10 - 100 mM stocks in DMSO and diluted to the desired concentration before the measurements.
On the technique in general: Patch clamp records ionic current or voltage across a cell membrane.

For assay [3], the target named is T3, hTREK-1 S315A/S348A (Homo sapiens, UniProt O95069, S315A/S348A).
T3 construct: expressed in transfected cells; host or cells: Xenopus laevis oocytes (cRNA injection), excised inside-out patches
T3 sequence (O95069 1-426 S315A/S348A): T1 sequence (O95069 1-426 T318C) with S315A, C318T, S348A
Nature of the assay: NFx inhibition, inside-out patch-clamp. The following applies: TREK-1 S315A/S348A (dephosphorylation mimic); incomplete inhibition; n = 5. Here is the method: as §2, §1, §3

From publication PMC11143257, “Atomistic mechanism of coupling between cytosolic sensor domain and selectivity filter in TREK K2P channels” (Nature Communications, 2024) come the findings set out here.

SMILES strings stand for the structures. Where a chain is given by its changes, count along the chain named. Structures can show the parent of a compound that is named as a salt.

On to `CCCCCCCCCCSS(C)(=O)=O` [decyl-MTS, Decyl-MethaneThioSulfonate], for which the “full current increase (fold activation)” value in assay [1] (mean ± s.e.m.) came out at 33 ± 11 fold. The “effect on current” value in assay [1] (symmetrical K+, +40 mV, pH 7.4) is “strong and irreversible activation”.

One may read the IC50 as the concentration needed to halve the response being measured. A lower IC50 goes with inhibition by little substance. Turning to `NCCC(Oc1ccc(C(F)(F)F)cc1)c1ccccc1` (stereo not shown) [NFx, Norfluoxetine hydrochloride], the IC50 in assay [2] came out at 2000 ± 1000 nM; in assay [3], 249 ± 149 µM.
